± gives the standard deviation of the reports.
SMILES	glass transition temperature [°C]
*c1ccc(-c2sc(-c3ccc(-c4cc(CCCC)c(*)s4)cc3)cc2CCCC)cc1 (repeat unit)	58.30
*CCOCCOC(=O)c1ccccc1C(=O)O* (repeat unit)	-50.00
*Oc1ccc(C2(c3ccc(OC(*)=S)cc3)CCCCC2)cc1 (repeat unit)	155.00
*CCCCCCCCOC(=O)c1ccc(C(=O)O*)cc1 (repeat unit)	45.00
*CCOC(=O)c1ccc(C(=O)O*)cc1 (repeat unit) [Poly(ethylene terephthalate)]	75 ± 3.5
*CCCCCCNC(=O)C(=O)N* (repeat unit)	250.00
*CC(*)c1ccc(CC)cc1 (repeat unit)	71.40
*Oc1cc(C)cc(OC(=O)c2cccc(C(*)=O)c2)c1 (repeat unit)	163.00
*CC(*)c1ccc(O)cc1 (repeat unit) [Poly(4-hydroxystyrene)]	157.42 ± 0.8
*CC(*)(C)C(=O)Oc1c(C(C)C)cccc1C(C)C (repeat unit)	198.00
*CC(*)(C)C(=O)OCc1c(F)cccc1F (repeat unit)	82.00
*Oc1ccc(C(C)c2ccc(OC(*)=O)cc2)cc1 (repeat unit)	130.00
*OP(=O)(Oc1c(Cl)cccc1Cl)Oc1c(Cl)c(Cl)c(*)c(Cl)c1Cl (repeat unit)	144.00
*CC(O)COC(=O)CCCCCCCCCCC(=O)OCC(O)COc1ccc(O*)cc1 (repeat unit)	10.00
*CCCCCOC(=O)c1ccc(C(=O)O*)cc1 (repeat unit)	16.00
*Oc1ccc(OC(=O)c2cc(OCCCCOCC3CCCN3c3ccc([N+](=O)[O-])cc3)c(C(*)=O)cc2OCCCCOCC2CCCN2c2ccc([N+](=O)[O-])cc2)cc1 (repeat unit)	68.00
*CC(*)(C)C(=O)OC(C)C(C)(C)C (repeat unit)	108.00
*Oc1ccc(OC(=O)c2ccc(C(*)=O)cc2)cc1C(F)(F)F (repeat unit)	159.30
*CC(*)C(=O)Nc1ccc2c(c1)C(=O)c1ccccc1C2=O (repeat unit)	128.00
*OC(CC)C(*)=O (repeat unit)	15.00
*CCOC(=O)c1ccc(C(=O)OCCOc2ccc(C(C)(C)c3ccc(O*)cc3)cc2)cc1 (repeat unit)	83.00

SMILES	glass transition temperature [°C]
*CCC(C)(C)CC(C)CNC(=O)c1ccc(C(=O)N*)cc1 (repeat unit)	148.00
*CC(*)C(=O)OCCCCCCOc1ccc(C(=O)Oc2ccc(C#N)cc2)cc1 (repeat unit)	19.50
*Cc1ccc(COP(=O)(/N=N/c2ccc(Oc3ccc(/N=N/P(=O)(O*)OC)cc3)cc2)OC)cc1 (repeat unit)	50.00
*Oc1cccc(NC(=O)c2cccc(C(=O)Nc3ccc(*)cc3)c2)c1 (repeat unit)	240.00
*CC/C(C)=C(/*)C (repeat unit)	4.00
*c1cccc(-c2nc3ccc(-c4ccc5nc(*)sc5c4)cc3s2)c1 (repeat unit)	495.00
*CC(=O)C(*)c1ccc(C(C)(C)C)cc1 (repeat unit)	158.00
*O[Si](C)(C)O[Si](C)(C)O[Si](C)(C)O[Si](C)(C)OC1=C(*)c2cccc3cccc1c23 (repeat unit)	-43.00
*CC(*)(C)C(=O)OCCCCCCOc1ccc(C(=O)Oc2ccc(OC)cc2)cc1 (repeat unit)	46.00
*CC(*)C(=O)OCCC(F)(F)C(F)(F)C(F)(F)C(F)(F)C(F)(F)C(F)(F)F (repeat unit)	-12.00
*c1cccc(P(=O)(c2ccccc2)c2cccc(-n3c(=O)c4c(-c5ccc(C(F)(F)F)cc5)c5c(=O)n(*)c(=O)c5c(-c5ccc(C(F)(F)F)cc5)c4c3=O)c2)c1 (repeat unit)	334.00
*Cc1cc(COC(=O)Nc2ccc(Cc3ccc(NC(=O)O*)cc3)cc2)cc(C(C)(C)C)c1 (repeat unit)	114.00
*CCCNC(=O)Cc1ccc(C(=O)N*)cc1 (repeat unit)	109.00
*Oc1ccc(NC(=O)c2ccc(OC3COC4C(Oc5ccc(C(=O)Nc6ccc(OC7COC8C(*)COC78)cc6)cc5)COC34)cc2)cc1 (repeat unit)	165.00
*Oc1ccc(NC(=O)/C=C/C(=O)NNC(=O)/C=C/C(=O)Nc2ccc(OC(=O)c3ccccc3C(=O)NNC(=O)c3ccccc3C(*)=O)cc2)cc1 (repeat unit)	240.00
*CCCCCCCCCCCCNC(=O)CCP(C)(=O)CCC(=O)N* (repeat unit)	44.00
*CCCCCCNC(=O)c1cc(NC(=O)c2ccc(NC(=O)C(CC(C)C)N3C(=O)c4ccccc4C3=O)cc2)cc(C(=O)N*)c1 (repeat unit)	200.00
*Oc1ccc(CC(NC(=O)CCc2ccc(OC(*)=O)cc2)C(=O)OCC)cc1 (repeat unit)	96.00
*CCOC(=O)c1cccc(C(=O)O*)c1 (repeat unit)	58.00
*CC(=O)NCCCCCCNC(=O)COc1ccc(O*)cc1 (repeat unit)	67.00
*CC(*)(C)C(=O)OCC#C (repeat unit)	58.00

Other lines, results leading:

glass transition temperature [°C]	SMILES
271.00	*C(=O)c1ccc2nc(-c3ccccc3)c(-c3ccc(Oc4ccc(-c5nc6cc(*)ccc6nc5-c5ccccc5)cc4)cc3)nc2c1 (repeat unit)
392.00	*c1ccc(-c2ccc(-c3cc(-c4ccccc4)c4cc5c(-c6ccccc6)cc(*)nc5cc4n3)cc2)cc1 (repeat unit)
243.00	*Oc1ccc(C(CC)(c2ccccc2)c2ccc(OC(=O)c3ccc(C(*)=O)cc3)cc2)cc1 (repeat unit)
248.50	*Oc1ccc(-c2ccc(NC(=O)c3cc(C(=O)Nc4ccc(-c5ccc(Oc6ccc(C(C)(C)c7ccc(*)cc7)cc6)c(C(F)(F)F)c5)cc4)cc(C(C)(C)C)c3)cc2)cc1C(F)(F)F (repeat unit)
146.50	*c1ccc(OCCOCCOc2cccc(N3C(=O)c4ccc(Oc5ccc6c(c5)C(=O)N(*)C6=O)cc4C3=O)c2)cc1 (repeat unit)
212.00	*Oc1cccc2ccc(Oc3ccc(NC(=O)c4ccc(Oc5ccc(C(C)(c6ccccc6)c6ccc(Oc7ccc(C(=O)Nc8ccc(*)cc8)cc7)cc6)cc5)cc4)cc3)cc12 (repeat unit)
253.00	*c1ccc(Oc2ccc(C(=O)c3ccc(Oc4ccc(N5C(=O)c6ccc(-c7ccc8c(c7)C(=O)N(*)C8=O)cc6C5=O)cc4)cc3)cc2)cc1 (repeat unit)
292.50 ± 9.3	*C(=O)c1ccc2c(c1)C(=O)N(c1ccc(Cc3ccc(N4C(=O)c5ccc(*)cc5C4=O)cc3)cc1)C2=O (repeat unit)
195.00	*c1ccc(Oc2ccc(Oc3ccc(-c4cnc5cc(-c6ccc7nc(*)cnc7c6)ccc5n4)cc3)cc2)cc1 (repeat unit)
245.00	*c1ccc(Oc2ccc(-c3ccc(Oc4ccc(N5C(=O)c6ccc(Oc7ccc8c(c7)C(=O)N(*)C8=O)cc6C5=O)cc4)cc3)cc2)cc1 (repeat unit)
421.00	*Oc1ccc(C2(c3ccc(Oc4ccc5c(=O)n6c7cc(-c8ccc9c(c8)nc8c%10ccc(*)c%11cccc(c(=O)n98)c%11%10)ccc7nc6c6cccc4c56)cc3)c3ccccc3-c3ccccc32)cc1 (repeat unit)
221.00	*c1ccc(Nc2ccc(C3(c4ccc(Nc5ccc(S(*)(=O)=O)cc5)cc4)c4ccccc4-c4ccccc43)cc2)cc1 (repeat unit)
278.50	*c1ccc2c(c1)C(=O)N(c1c(C(C)C)cc(Cc3cc(C(C)C)c(N4C(=O)c5ccc(C(*)(C(F)(F)F)C(F)(F)F)cc5C4=O)c(C(C)C)c3)cc1C(C)C)C2=O (repeat unit)
215.00	*c1ccc(Oc2c(F)c(F)c(C(=O)c3c(F)c(F)c(Oc4ccc(C5(*)OC(=O)c6ccccc65)cc4)c(F)c3F)c(F)c2F)cc1 (repeat unit)
232.50	*Oc1ccc(S(=O)(=O)c2ccc(Oc3ccc(NC(=O)c4cc(C(=O)Nc5ccc(*)cc5)cc(C(C)(C)C)c4)cc3)cc2)cc1 (repeat unit)
340.00	*c1ccc(C(=O)Nc2ccc(-n3c(=O)c4cc5c(=O)n(*)c(=O)c5cc4c3=O)cc2C(=O)OCC)cc1 (repeat unit)
248.00	*c1cccc(N2C(=O)c3cccc(Oc4ccc(C(=O)c5ccc(Oc6cccc7c6C(=O)N(*)C7=O)cc5)cc4)c3C2=O)c1 (repeat unit)
422.00	*c1ccc(S(=O)(=O)c2ccc(-n3nc(-c4ccccc4)c4ccc(S(=O)(=O)c5ccc6c(-c7ccccc7)nn(*)c(=O)c6c5)cc4c3=O)cc2)cc1 (repeat unit)
298.00	*c1ccc(Oc2ccc(N3C(=O)c4cccc(Oc5c(C)cc(-c6cc(C)c(Oc7cccc8c7C(=O)N(*)C8=O)c(C)c6)cc5C)c4C3=O)cc2)cc1 (repeat unit)
166.00	*Oc1ccc2ccc(Oc3ccc(C(=O)Nc4ccc(Oc5ccc(C(C)(C)c6ccc(C(C)(C)c7ccc(Oc8ccc(NC(=O)c9ccc(*)cc9)cc8)cc7)cc6)cc5)cc4)cc3)cc2c1 (repeat unit)
270.00	*c1cccc(C(=O)Nc2ccc(Oc3ccc(-c4ccc(Oc5ccc(NC(=O)c6cccc(N7C(=O)c8ccc(-c9ccc%10c(c9)C(=O)N(*)C%10=O)cc8C7=O)c6)cc5)cc4)cc3)cc2)c1 (repeat unit)
160.00	*Oc1ccc(C(=O)NNC(=O)c2ccc(C(=O)NNC(=O)c3ccc(OC(=O)c4cccc(C(*)=O)c4)cc3)cc2Oc2ccccc2)cc1 (repeat unit)
136.00	*CCCCCCCCCCC(=O)Nc1ccc(Cc2ccc(NC(=O)CCCCCCCCCCN3C(=O)c4ccc(C(=O)c5ccc6c(c5)C(=O)N(*)C6=O)cc4C3=O)cc2)cc1 (repeat unit)
105.00	*CC(O)COc1ccc(C(C)(C)c2ccc(OCC(O)COc3ccc(NC(=O)CCCC(=O)Nc4ccc(O*)cc4)cc3)cc2)cc1 (repeat unit)
